# In PubChem BioAssay (NCI):
#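 All cell lines were grown in 96-well plates and treated with compound for 48 hours. Here, GI50 denotes the concentration required for 50% inhibition of growth. The concentration for full growth arrest is given as TGI.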
# How the values were obtained:
# Experiment in all cases: NCI anticancer screen, dose series, 48 h
# NCI-H23 lung = system: NCI-H23 lung
# SK-MEL-28 melanoma = system: SK-MEL-28 melanoma
# LOX IMVI melanoma = system: LOX IMVI melanoma
# MOLT-4 leukemia = system: MOLT-4 leukemia
# SF-539 CNS = system: SF-539 CNS
# COLO 205 colon = system: COLO 205 colon
# BT-549 breast = system: BT-549 breast
# SR leukemia = system: SR leukemia
# U251 CNS = system: U251 CNS
# MDA-N = system: MDA-N
# NCI-H460 lung = system: NCI-H460 lung
# SK-MEL-2 melanoma = system: SK-MEL-2 melanoma
# OVCAR-3 ovarian = system: OVCAR-3 ovarian
# MCF7 breast = system: MCF7 breast
# OVCAR-8 ovarian = system: OVCAR-8 ovarian
# DU-145 prostate = system: DU-145 prostate
# MDA-MB-231 breast = system: MDA-MB-231 breast
# SF-295 CNS = system: SF-295 CNS
# ACHN renal = system: ACHN renal
# HL-60(TB) leukemia = system: HL-60(TB) leukemia
# HCC-2998 colon = system: HCC-2998 colon
# HCT-116 colon = system: HCT-116 colon
# M14 melanoma = system: M14 melanoma
# 786-0 renal = system: 786-0 renal
# HS 578T breast = system: HS 578T breast
# UO-31 renal = system: UO-31 renal
# NCI-H522 lung = system: NCI-H522 lung
# MDA-MB-435 = system: MDA-MB-435
# K-562 leukemia = system: K-562 leukemia
# HCT-15 colon = system: HCT-15 colon
# SW-620 colon = system: SW-620 colon
# CAKI-1 renal = system: CAKI-1 renal
# SK-OV-3 ovarian = system: SK-OV-3 ovarian
# RPMI-8226 leukemia = system: RPMI-8226 leukemia
# SNB-75 CNS = system: SNB-75 CNS
# HOP-62 NSCLC = system: HOP-62 NSCLC
# SN12C renal = system: SN12C renal
# IGROV1 ovarian = system: IGROV1 ovarian
# PC-3 prostate = system: PC-3 prostate
# OVCAR-4 ovarian = system: OVCAR-4 ovarian
# UACC-257 melanoma = system: UACC-257 melanoma
# EKVX NSCLC = system: EKVX NSCLC
# NCI/ADR-RES ovarian = system: NCI/ADR-RES ovarian
# MALME-3M melanoma = system: MALME-3M melanoma
# SK-MEL-5 melanoma = system: SK-MEL-5 melanoma
# OVCAR-5 ovarian = system: OVCAR-5 ovarian
# NCI-H226 lung = system: NCI-H226 lung
# T-47D breast = system: T-47D breast
# SF-268 CNS = system: SF-268 CNS
# UACC-62 melanoma = system: UACC-62 melanoma
# KM12 colon = system: KM12 colon
# HT29 colon = system: HT29 colon
# TK-10 renal = system: TK-10 renal
# A549 NSCLC = system: A549 NSCLC
# SNB-19 CNS = system: SNB-19 CNS
# HOP-92 NSCLC = system: HOP-92 NSCLC
# CCRF-CEM leukemia = system: CCRF-CEM leukemia
compound,measurement,setting,value
CC(=O)O[C@H]1CC[C@H]2[C@@H]3CCc4cc(O)c(I)cc4[C@H]3CC[C@]12C,TGI,NCI-H23 lung,27.4 µM
same,TGI,SK-MEL-28 melanoma,29.6 µM
same,TGI,LOX IMVI melanoma,30.2 µM
same,TGI,MOLT-4 leukemia,61.6 µM
same,TGI,SF-539 CNS,29.7 µM
same,TGI,COLO 205 colon,33.6 µM
same,TGI,BT-549 breast,29.4 µM
same,TGI,SR leukemia,> 100 µM
same,TGI,U251 CNS,27.8 µM
same,TGI,MDA-N,31.3 µM
same,TGI,NCI-H460 lung,26.9 µM
same,TGI,SK-MEL-2 melanoma,37.3 µM
same,TGI,OVCAR-3 ovarian,31.4 µM
same,TGI,MCF7 breast,33.8 µM
same,TGI,OVCAR-8 ovarian,37.9 µM
same,TGI,DU-145 prostate,28.7 µM
same,TGI,MDA-MB-231 breast,12.3 µM
same,TGI,SF-295 CNS,28.6 µM
same,TGI,ACHN renal,28.1 µM
same,TGI,HL-60(TB) leukemia,80.9 µM
same,TGI,HCC-2998 colon,32.2 µM
same,GI50,HCT-116 colon,16 µM
same,TGI,HCT-116 colon,29.9 µM
same,TGI,M14 melanoma,27.3 µM
same,TGI,786-0 renal,27.1 µM
same,TGI,HS 578T breast,31.9 µM
same,TGI,UO-31 renal,27.1 µM
same,TGI,NCI-H522 lung,25.2 µM
same,GI50,MDA-MB-435,13.1 µM
same,TGI,MDA-MB-435,26.6 µM
same,TGI,K-562 leukemia,> 100 µM
same,TGI,HCT-15 colon,22.9 µM
same,TGI,SW-620 colon,27.7 µM
same,TGI,CAKI-1 renal,29.7 µM
same,TGI,SK-OV-3 ovarian,29.1 µM
same,TGI,RPMI-8226 leukemia,41.9 µM
same,TGI,SNB-75 CNS,26.2 µM
same,GI50,HOP-62 NSCLC,11 µM
same,TGI,HOP-62 NSCLC,24 µM
same,GI50,SN12C renal,18 µM
same,TGI,SN12C renal,37.2 µM
same,TGI,IGROV1 ovarian,30.5 µM
same,TGI,PC-3 prostate,20 µM
same,TGI,OVCAR-4 ovarian,28 µM
same,TGI,UACC-257 melanoma,30 µM
same,TGI,EKVX NSCLC,26.8 µM
same,TGI,NCI/ADR-RES ovarian,43.2 µM
same,TGI,MALME-3M melanoma,37 µM
same,TGI,SK-MEL-5 melanoma,17.2 µM
same,TGI,OVCAR-5 ovarian,32.2 µM
same,TGI,NCI-H226 lung,30.7 µM
same,TGI,T-47D breast,31.7 µM
same,TGI,SF-268 CNS,28.4 µM
same,GI50,UACC-62 melanoma,12 µM
same,TGI,UACC-62 melanoma,24.4 µM
same,TGI,KM12 colon,28.3 µM
same,TGI,HT29 colon,33.2 µM
same,TGI,TK-10 renal,33.6 µM
same,TGI,A549 NSCLC,29.5 µM
same,TGI,SNB-19 CNS,32.3 µM
CC(C)C1C(=O)N2CCCC2C2(O)OC(NC(=O)C3C=C4c5cccc6[nH]cc(c56)CC4N(C)C3)(C(C)C)C(=O)N12 (stereo not drawn),TGI,NCI-H23 lung,> 100 µM
same,TGI,SK-MEL-28 melanoma,> 100 µM
same,TGI,LOX IMVI melanoma,34.8 µM
same,TGI,MOLT-4 leukemia,53.8 µM
same,TGI,SF-539 CNS,52.4 µM
same,TGI,COLO 205 colon,51.5 µM
same,TGI,BT-549 breast,88.6 µM
same,TGI,SR leukemia,68.3 µM
same,TGI,HOP-92 NSCLC,30.1 µM
same,TGI,U251 CNS,70.3 µM
same,TGI,MDA-N,67.5 µM
same,TGI,NCI-H460 lung,39.2 µM
same,TGI,SK-MEL-2 melanoma,42.4 µM
same,TGI,OVCAR-3 ovarian,80.6 µM
same,TGI,MCF7 breast,> 100 µM
same,TGI,OVCAR-8 ovarian,52.9 µM
same,TGI,DU-145 prostate,> 100 µM
same,TGI,MDA-MB-231 breast,34.3 µM
same,TGI,SF-295 CNS,64.4 µM
same,TGI,ACHN renal,43.4 µM
same,TGI,HL-60(TB) leukemia,48.5 µM
same,TGI,HCC-2998 colon,42.9 µM
same,TGI,HCT-116 colon,33.5 µM
same,TGI,M14 melanoma,75.5 µM
same,TGI,786-0 renal,33 µM
same,TGI,HS 578T breast,> 100 µM
same,TGI,CCRF-CEM leukemia,91.3 µM
same,TGI,UO-31 renal,37 µM
same,TGI,NCI-H522 lung,74.5 µM
same,TGI,MDA-MB-435,> 100 µM
same,TGI,HCT-15 colon,54.9 µM
same,TGI,SW-620 colon,> 100 µM
same,TGI,CAKI-1 renal,37.9 µM
same,TGI,RPMI-8226 leukemia,47.9 µM
same,TGI,SNB-75 CNS,76.7 µM
same,TGI,HOP-62 NSCLC,> 100 µM
same,TGI,SN12C renal,> 100 µM
same,TGI,IGROV1 ovarian,36.5 µM
same,TGI,PC-3 prostate,87.3 µM
same,TGI,OVCAR-4 ovarian,47.9 µM
same,TGI,UACC-257 melanoma,76.2 µM
same,TGI,EKVX NSCLC,73.1 µM
same,TGI,NCI/ADR-RES ovarian,57.5 µM
same,TGI,SK-MEL-5 melanoma,57.9 µM
same,TGI,OVCAR-5 ovarian,29.7 µM
same,TGI,T-47D breast,> 100 µM
same,TGI,SF-268 CNS,> 100 µM
same,TGI,UACC-62 melanoma,55.7 µM
same,TGI,KM12 colon,47.7 µM
same,TGI,HT29 colon,37.5 µM
same,TGI,TK-10 renal,68.6 µM
same,TGI,A549 NSCLC,67.3 µM
same,TGI,SNB-19 CNS,> 100 µM
